The text below walks through data of ChEMBL document CHEMBL1156399, “A quinolone alkaloid with antioxidant activity from the aleurone layer of anthocyanin-pigmented rice” (J Nat Prod, 2001).

One may read the IC50 as the midpoint of a concentration-inhibition curve.

In brackets after ≈: the same amount, converted by molar mass.

The test system of this test is Radical scavenging activity. Kind of test: Antioxidant activity assessed as DPPH radical scavenging activity. The class given is functional. A general note: DPPH is a stable violet radical that fades when it is reduced.
Turning to `COC(=O)c1cc(=O)[nH]c2ccc(O)cc12`, the concentration for half-maximal inhibition (IC50) turned out to be 36.4 µg/mL (≈ 166 µM).

`O=C1O[C@H]([C@@H](O)CO)C(O)=C1O` [ASCORBIC ACID]: the IC50 turned out to be 21.8 µg/mL (≈ 124 µM). `COc1ccc(O)c(C(C)(C)C)c1.COc1ccc(O)cc1C(C)(C)C` [BUTYLATED HYDROXYANISOLE]: the half-maximal inhibitory concentration (IC50) was determined as 20.6 µg/mL.
